Results published in patent US6310067A, “Urocanic acid derivatives” (Senju Pharmaceutical Co., Ltd., priority 1998, dated 2001).
Where two headings read alike, the source gives them in different places.

Legend:
[1] = test system: rat type I allergy (PCA reaction); assay: Rat type I allergy: passive anaphylaxis (PCA) reaction, oral administration; assay type: in vivo, Male Wistar rats; conditions: 100 mg/5 ml/kg oral, 60 min before PCA provocation; for Optical density: 625 nm, mean ± standard deviation, n = 5-6; for Inhibition rate (%): vs CMC-Na
Method: The present compound was assessed for its effect on type I allergy through oral administration.
The compound of Example 1 100 mg/5 ml/kg
Male Wistar rats purchased from SLC Japan were used in the test.
The rats were intracutaneously injected in the back with 100 μl of antiserum (16-fold dilution) under pentobarbital anesthesia. Forty-eight hrs later, the animals were injected with 5 ml/kg of a mixture of ovalbumin (25 mg/kg) and Evans blue (12.5 mg/kg) to provoke passive anaphylaxis (PCA) reaction.
The rats were sacrificed 30 min after the provocation of PCA reaction and dye-infiltrated region of their back skin was cut out, the dye extracted with 5 ml of formamide and its optical density measured (625 nm).
Each of the test compounds was orally administered 60 min before the provocation of PCA reaction.

[2] = test system: type IV allergy (efferent phase), mouse contact-type dermatitis in auricles; assay: Type IV allergy (efferent phase), DNFB contact-type dermatitis in auricles; assay type: in vivo, Male C57BL/6J mice; conditions: n = 9-11, 1 hr before induction
Method: The present compound was assessed for its effect on type IV allergy (efferent phase) through oral and topical administrations, using a DNFB contact-type dermatitis model.
(§1) Male C57BL/6J mice purchased from Clea Japan, Inc. were used.
The mice which had their abdominal hair removed on the previous day were sensitized by applying to them on a 1-cm^2 area of their abdominal surface 25 μl of 0.5% dinitrofluorobenzene (DNFB) dissolved in acetone, under anesthesia with ketamine hydrochloride: xylazine hydrochloride (9:1). Five days after the sensitization procedure, 10 μl of 0.1% DNFB dissolved in acetone was applied to the outer side of their right auricles to induce infammation. Twenty-four hrs after the induction of inflammation, the thickness of the auricles was measured with a dial thickness gauge (manufactured by Ozaki Seisakusho) and the rate of edema calculated by comparing it with pre-induction thickness.
The test compounds were administered either orally or by topically applying 15 μl of its solution onto the outer side of the auricles, 1 hr before the induction.

[3] = test system: type IV allergy (afferent phase), mouse contact-type dermatitis in auricles; assay: Type IV allergy (afferent phase), DNFB contact-type dermatitis in auricles, oral administration; assay type: in vivo, Male C57BL/6J mice; conditions: 30 mg/kg, 1 hr before sensitization, vs distilled water, n = 7-9
Method: The present compound was assessed for its effect on type IV allergy (afferent phase) through oral administrations, using a DNFB contact-type dermatitis model.
as §1
The test compounds were orally administered to the mice. One hr later, sensitization was performed by applying 30 μl of 0.5% DNFB acetone solution. Five days after the sensitization procedure, 10 μl of 0.1% DNFB dissolved in acetone was applied to their right auricles to induce contact-type dermatitis. Then, 24 hrs later, the thickness of the auricles was measured and the rate of edema calculated.

allergy = conditions: background statement, cited from earlier work
[4] = topical, concentration 0.2%, vs methanol
[5] = topical, concentration 0.5%, vs methanol
[6] = Table 4, topically applied (as titled), concentration 0.5%, vs CMC-Na

SMILES: COC(=O)C=Cc1cn(CCN2CCN(C(c3ccccc3)c3ccccc3)CC2)cn1 [Example 1, 1-(Diphenylmethylpiperazinylethyl)urocanic Acid Methyl Ester]
- Optical density [1]: 0.413 ± 0.051
- Inhibition rate (%) [1]: 28.7%
- Inhibition rate (%) [2, 4]: 73.5%
- Inhibition rate (%) [2, 5]: 83.9%
- Inhibition rate (%) [3]: 47.8%

SMILES: O=C(O)C=Cc1cn(CCN2CCN(C(c3ccccc3)c3ccccc3)CC2)cn1 [Example 2, 1-(Diphenylmethylpiperazinylethyl)urocanic Acid]
- Inhibition rate (%) [3]: 56.2%

SMILES: COC(=O)C=Cc1cn(CCN2CCN(C(c3ccccc3)c3ccccn3)CC2)cn1 (stereo not shown) [Example 3, 1-[Phenyl(2-pyridyl)methylpiperazinylethyl]urocanic Acid Methyl Ester]
- Optical density [1]: 0.409 ± 0.033
- Inhibition rate (%) [1]: 29.2%
- Inhibition rate (%) [2, 4]: 47.5%
- Inhibition rate (%) [2, 5]: 79.2%
- Inhibition rate (%) [3]: 49.5%

SMILES: COC(=O)C=Cc1cn(-c2ccc(N)cc2)cn1 [Example 5, 1-(4-Aminophenyl)urocanic Acid Methyl Ester]
- Inhibition rate (%) [2, 4]: 99.9%

SMILES: COC(=O)C=Cc1cn(-c2nccs2)cn1 [Example 9, 1-(2,5-Thiazolyl)urocanic Acid Methyl Ester]
- Inhibition rate (%) [2, 6]: 89.9%

SMILES: COC(=O)C=Cc1cn(CC=Cc2ccccc2)cn1 [Example 17, 1-(3-Phenyl-2-propenyl)urocanic Acid Methyl Ester]
- Inhibition rate (%) [2, 6]: 70.5%

SMILES: O=C(O)/C=C/c1c[nH]cn1 [urocanic acid, Urocanic acid]
- effect on delayed allergy (allergy; listed as Urocanic acid): suppressive effect on delayed allergy
- effect on delayed allergy (allergy): by no means satisfactory
